Laboratory results from US7205387B2, “Recombinant polypeptide useful for neurotrophin receptor mediated gene delivery and as neurotrophin agonist” (Agency for Science, Technology and Research, priority 2003, dated 2007).
Bridge positions count the residues as written; N and C are the ends. Ends that are not written are not given here.

Tests used:
[1] = system: PC12 (TrkA and p75^NTR positive) cells; assay: Gene delivery in vitro (pCAGluc luciferase reporter), PC12 cells; format: cell-based, rat
Method: A PC12 (rat pheochromocytoma) cell line was obtained from ATCC (American Type Culture Collection, Manassas, Va., USA) and cultured in RPMI-1640 medium supplemented with 10% fetal bovine serum (FBS) and 5% horse serum. PC12 cells are known to express TrkA and p75^NTR receptors. A COS7 (African green monkey kidney fibroblast) cell line was obtained from ATCC and cultured in Dulbecco's modified Eagle's medium (DMEM) supplemented with 10% fetal bovine serum, 50 U/ml penicillin, and 50 μg/ml streptomycin. The cells were maintained in a 37° C., 5% CO2, humidified incubator.
To determine the transfection efficiencies of our nucleic acid delivery systems, we employ a reporter plasmid, pCAGluc (a gift from Yoshiharu Matsuura, National Institute of Infectious Diseases, Tokyo, Japan), encoding firefly luciferase under the control of the composite promoter, CAG. CAG comprises the chicken β-actin promoter and the cytomegalovirus immediate early enhancer.
TrkA-targeting gene delivery complexes were tested for transfection efficiency in vitro in PC12 (TrkA and p75^NTR positive) cells and COS7 (neurotrophin receptor negative) cells. The cells were grown to 50–70% confluency in microplate wells (24-, 48-, or 96-well plates). The gene delivery complexes were prepared according to specifications presented for each example. Transfection was accomplished by replacing the serum-enriched medium with half the usual volume of reduced-serum medium, Opti-MEM (Invitrogen), containing the gene delivery complexes. Where specifically mentioned, 100 μM of chloroquine was also added to help the complexes escape from endosomes. After four hours of incubation, the cells were restored to the normal medium volume and serum concentration, either by topping up with medium containing twice the usual serum concentration (RPMI-1640 with 20% FBS and 10% horse serum for PC12) or by completely replacing the medium.
One to two days after transfection, the cell culture medium was removed and the cells were rinsed in phosphate-buffered saline (PBS). Enough Reporter Lysis Buffer (Promega, Wisconsin, Md., USA) to cover the bottom surface was added to each well (50 μl/well for 48-well plates). After one freeze-thaw cycle, the lysates were tested for luciferase activity using the Luciferase Assay System (Promega) and a single-tube luminometer (Berthold Lumat L B 9507, Bad Wildbad, Germany). The total protein concentration of each lysate was determined using the DC Protein assay (Bio-Rad, Hercules, Calif., USA). The results were expressed in relative light units (RLU) per milligram of total protein.

[2] = system: primary glial cells; assay: Gene delivery to primary cultures of glial cells; format: cell-based, rat
Method: Primary cultures of glial cells were established from the cortices of 20-day old embryonic Wistar rats. Individual cells were collected as described above. The cells were plated at a density of 4×10^5 viable cells/cm^2 on poly-L-lysine/laminin coated dishes and grown to confluence for 7 days in DMEM/F12 medium supplemented with 10% FCS. The day before transfection, the cells were detached and plated into coated microplates at a density of 2.5×10^4 cells per well. Gene delivery complexes were also tested on primary cultures of cortical neurons and glial cells in a similar fashion. […] Four hours later, an equal volume of DMEM-F12/N2 was added. One to two days after transfection, the cell culture medium was removed and the cells were rinsed in phosphate-buffered saline (PBS). Enough Reporter Lysis Buffer (Promega, Wisconsin, Md., USA) to cover the bottom surface was added to each well (50 μl/well for 48-well plates). After one freeze-thaw cycle, the lysates were tested for luciferase activity using the Luciferase Assay System (Promega) and a single-tube luminometer (Berthold Lumat L B 9507, Bad Wildbad, Germany). The total protein concentration of each lysate was determined using the DC Protein assay (Bio-Rad, Hercules, Calif., USA). The results were expressed in relative light units (RLU) per milligram of total protein.

[3] = system: dorsal root ganglia (DRG); assay: Gene delivery in vivo, intrathecal injection, dorsal root ganglia; set-up: species or system rat; settings: 3 days
From the text: In vivo gene delivery was studied by intrathecal injections of adult Wistar rats (8 weeks old, 180–200 g). The rats were anesthetized by intraperitoneal injection of sodium pentobarbital. After the skin around L4–L5 was exposed, the gene delivery complex was slowly injected into the subarachnoid space using a syringe. A slight tail movement accompanied correct placement of the needle. After injection, the syringe was left in place for five minutes to limit diffusion caused by backflow pressure. Multiple injections were sometimes required to deliver the full volume of the complex. After injection, the skin was closed with surgical clips and the animals were kept warm until they recovered. […] The lumbar segment of the spinal cord and the lumbar dorsal root ganglia were excised. The tissues were homogenized in 100–400 μl of Reporter Lysis Buffer (Promega) depending on size and subjected to three freeze-thaw cycles. The lysates were centrifuged at 14000 g for 5 min at 4° C. The supernatant was tested for luciferase activity using the Luciferase Assay System (Promega) in a single-tube luminometer (Berthold Lumat LB 9507). The readings were normalized by the total protein content of the lysates, as measured by the DC Protein assay (Bio-Rad).

[4] = system: Erk1 and Erk2; assay: Phospho-Erk1/Erk2 (p44/p42 MAPK) immunoblot in PC12 cells; format: cell-based, rat
Method: Immunoblotting experiments were conducted to test whether the chimeric polypeptides could, like NGF, induce autophosphorylation of TrkA and activation of its signal transduction pathways. PC12 cells were seeded in 6-well plates at a density of 2×10^6 cells/well and cultured in RPMI 1640 containing 0.5% FBS and 0.25% horse serum for 2 days. The low serum concentrations were necessary to reduce the basal levels of phosphorylation. The medium was refreshed two hours before beginning treatment. The cells were incubated with the polypeptides or NGF in serum-free medium for 15–20 min. The cells were then washed in PBS, lysed, and sonicated. The cell lysates were resolved by SDS-PAGE and transferred to a nitrocellulose membrane for immunoblotting. The primary antibodies used include Phospho-TrkA (Tyr490) antibody, Phospho-p44/p42 MAPK (Thr202/Tyr204) monoclonal antibody, and Phospho-Akt (Ser473) monoclonal antibody, all obtained from Cell Signaling Technology (Beverly, Mass., USA). Colorimetric detection was performed by standard techniques after using horse-radish peroxidase-conjugated secondary antibodies. In some experiments, TrkA tyrosine kinase inhibitors K-252a or AG879 (both from Calbiochem, La Jolla, Calif., USA) were used. In these cases, PC12 cells were incubated with 100 nM K-252a or 10 μM AG879 before addition of polypeptides or NGF.

CTTTHTFVKALTMDGKQAAWRFIRIDTACKKKKKKKKKK (CTTTHTFVKALTMDGKQAAWRFIRIDTACKKKKKKKKKK; disulfide 1-29) [NL4-10K]
gene delivery at N/P ratio of 1 (in words) ([1]; 0.3 nmol peptide with 1 μg pCAGluc, 100 μM chloroquine): modest gene delivery | transfection efficiency relative to a mixture of NL4 and 10K peptides ([1]; 1.5 nmol peptide per μg DNA (N/P ratio of 5), 100 μM chloroquine, 24 h): 110 times | dose-response of transfection efficiency with increasing amount of peptide ([1]; 1 μg pCAGluc/well, 100 μM chloroquine): increased markedly | difference between transfection efficiencies of NL4-10K and 10K ([2]; peptide/DNA 0.75 nmol/μg (N/P ratio of 2.5), chloroquine): not significant | luciferase gene expression in DRG relative to PEI600/pCAGluc/10K ([3]; 3 μg pCAGluc, PEI600 N/P 5, peptide N/P 5, intralumbar): twice as high | activation (phosphorylation) of Erk 1 and Erk 2 ([4]; 5 μM peptide, 20 min): induced activation

B1: SPKR4NL1-2: chimeric protein: (SPKR)4 DNA-binding domain, α-helical linker, targeting domain with loops 1 and 2 of NGF (aa 17–67), His10 tag (protein)
chain: MGHHHHHHHHHHSSGHIEGRHMSPKRSPKRSPKRSPKRGGTYLSEDELKAAEAAFKRHNPTGSCSVSVWVGDKTTATDIKGKEVMVLGEVNINNSVFKQYFFETKCRDPNPVDSG
modifications: SPKR4NL1-2
transfection efficiency of complexes of polypeptide and DNA alone ([1]; no polycation): relatively weak transfection efficiencies | transgene expression relative to PEI600 alone ([1]; triple complexes with PEI600, highest amount of SPKR4NL1-2 tested): 5000 fold | transfection efficiency relative to PLL without SPKR4NL1-2 ([1]; triple complexes with poly-L-lysine (MW 1000), chloroquine, optimal amount of SPKR4NL1-2): 1000 times | difference between SPKR4NL1-2 and (SPKR)4 triple complexes ([2]; 0.25 μg/well pCAGluc, PEI600, 24 h): essentially no difference | transgene expression in lumbar DRG relative to PEI600/pCAGluc control ([3]; 4 μg pCAGluc, PEI600 N/P 5, 32 nmol peptide, intrathecal): nine times | Erk1 and Erk2 activation compared with (SPKR)4 control ([4]; 1–8 μM, 15 min): higher level of Erk1 and Erk2 activation
